Experimental data: patent publication US5212159A, “Anticataract composition” (Senju Pharmaceutical Co., Ltd., priority 1991, dated 1993)

Tested on: Streptozotocin-induced Diabetic Cataract
Experiment: Inhibitory effect on streptozotocin-induced diabetic cataract (slit-lamp cataract score, Sasaki scale)
Format: in vivo, male SD rats
Procedure: Streptozotocin (hereafter abbreviated as STZ), 70 mg/kg, was administered intravenously to 28 male SD rats aged 4 weeks to induce diabetes. Thereafter, the animals were divided into three groups (two groups consisting of 10 animals each and a group consisting of 8 animals). […] The lens was examined with a slit lamp under mydriasis with Mydrin-P before the beginning of drug administration and every seven days after initiation of administration. The degree of cataract was scored according to the rating scale of Sasaki et al. (Ophthalmic Res. 15: 185-190, 1983) and the anticataract activity of each drug was tested by time series analysis of variance. Body weights were taken on each observation day. […] Rating scale of Sasaki et al. 0: No abnormality. […] Vacuoles are present in the equator of the lens. […] Vacuoles spread toward the anterior pole beneath the cortex of the anterior lens capsule. […] Vacuole begin to merge. […] The deep layer of the cortex of the anterior lens capsule is cloudy. […] The central part of the lens is milk white in color. […] Virtually the entire lens is milk white in color (mature cataract).

[1] = compared with the control group, 100 mg/kg/day i.p. for 56 days
[2] = day 7 after the beginning of treatment, 100 mg/kg/day i.p.
[3] = day 14 after the beginning of treatment, 100 mg/kg/day i.p.
[4] = day 21 after the beginning of treatment, 100 mg/kg/day i.p.
[5] = day 28 after the beginning of treatment, 100 mg/kg/day i.p.
[6] = day 35 after the beginning of treatment, 100 mg/kg/day i.p.
[7] = day 42 after the beginning of treatment, 100 mg/kg/day i.p.
[8] = day 49 after the beginning of treatment, 100 mg/kg/day i.p.
[9] = day 56 after the beginning of treatment, 100 mg/kg/day i.p.

## N[C@@H](CCC(=O)N[C@@H](CS)C(=O)NCC(=O)O)C(=O)O [Glutathione, glutathione]
[1]
  Degree of progression of cataract, time series analysis of variance: no significant difference from the control group
  Time at which cataract scores were reached: scores of 5 and 6 were reached later than in the control group
Day 0 after the beginning of treatment, 100 mg/kg/day i.p.
  Number of eyes with cataract score 0: 16 eyes
[2]
  Number of eyes with cataract score 0: 7 eyes
  Number of eyes with cataract score 1: 9 eyes
[3]
  Number of eyes with cataract score 0: 1 eyes
  Number of eyes with cataract score 1: 13 eyes
  Number of eyes with cataract score 2: 2 eyes
[4]
  Number of eyes with cataract score 1: 3 eyes
  Number of eyes with cataract score 2: 13 eyes
[5]
  Number of eyes with cataract score 2: 9 eyes
  Number of eyes with cataract score 3: 7 eyes
[6]
  Number of eyes with cataract score 2: 3 eyes
  Number of eyes with cataract score 3: 8 eyes
  Number of eyes with cataract score 4: 3 eyes
[7]
  Number of eyes with cataract score 3: 11 eyes
  Number of eyes with cataract score 4: 3 eyes
[8]
  Number of eyes with cataract score 3: 10 eyes
  Number of eyes with cataract score 4: 3 eyes
  Number of eyes with cataract score 5: 1 eyes
[9]
  Number of eyes with cataract score 3: 4 eyes
  Number of eyes with cataract score 4: 6 eyes
  Number of eyes with cataract score 5: 3 eyes
  Number of eyes with cataract score 6: 1 eyes
